Like-named read-outs stand apart in the source and are kept apart here.
Key:
[1] = tested on: huCART19 cells; assay: 4 day co-culture proliferation assay of CARTs with Nalm-6 cells in the presence of RAD001; type: cell-based, human
Source text: A humanized, anti-human CD19 CAR (huCART19) lentiviral transfer vector was used to produce the genomic material packaged into VSVg pseudotyped lentiviral particles. The amino acid and nucleotide sequence of the humanized anti-human CD19 CAR (huCART19) is CAR 1, ID 104875, described in PCT publication, WO2014/153270, filed Mar. 15, 2014, and is designated SEQ ID NOs. 85 and 31 therein.
Lentiviral transfer vector DNA is mixed with the three packaging components VSVg env, gag/pol and rev in combination with lipofectamine reagent to transfect Lenti-X 293T cells. Medium is changed after 24 h and 30 h thereafter, the virus-containing media is collected, filtered and stored at −80° C. CARTs are generated by transduction of fresh or frozen naïve T cells obtained by negative magnetic selection of healthy donor blood or leukopak. T cells are activated by incubation with anti-CD3/anti-CD28 beads for 24 h, after which viral supernatant or concentrated virus (MOI=2 or 10, respectively) is added to the cultures. The modified T cells are allowed to expand for about 10 days. The percentage of cells transduced (expressing the CARs on the cell surface) and the level of CAR expression (relative fluorescence intensity, Geo Mean) are determined by flow cytometric analysis between days 7 and 9. The combination of slowing growth rate and T cell size approaching ˜350 fL determines the state for T cells to be cryopreserved for later analysis.
To evaluate the functionality of CARTs, the T cells are thawed and counted, and viability is assessed by Cellometer. The number of CAR-positive cells in each culture is normalized using non-transduced T cells (UTD). The impact of RAD001 on CARTs was tested in titrations with RAD001, starting at 50 nM. The target cell line used in all co-culture experiments is Nalm-6, a human pre-B cell acute lymphoblastic leukemia (ALL) cell line expressing CD19 and transduced to express luciferase.
For measuring the proliferation of CARTs, T cells are cultured with target cells at a ratio of 1:1. The assay is run for 4 days, when cells are stained for CD3, CD4, CD8 and CAR expression. The number of T cells is assessed by flow cytometry using counting beads as reference.

[2] = Pharmacokinetics of RAD001 in the blood of NSG mice with NALM6 tumors; type: in vivo; settings: for concentration at 24 h: mouse, blood
Procedure: (§1) RAD001 dosing: A concentrated micro-emulsion of 50 mg equal to 1 mg RAD001 was formulated and then resuspended in D5W (dextrose 5% in water) at the time of dosing. Mice were orally dosed daily (via oral gavage) with 200 μl of the desired doses of RAD001.
PK analysis: Mice were dosed daily with RAD001 starting 7 days post tumor implantation. Dosing groups were as follows: 0.3 mg/kg, 1 mg/kg, 3 mg/kg, and 10 mg/kg. Mice were bled on days 0 and 14 following the first and last dose of RAD001, at the following time points for PK analysis: 15 minutes, 30 minutes, 1 hour, 2 hours, 4 hours, 8 hours, 12 hours, and 24 hours.

[3] = tested on: NALM6-luc tumors; assay: Tumor growth of NALM6-luc cells in NSG mice with daily RAD001 dosing; type: in vivo; settings: daily oral dosing of RAD001 alone, 0.3, 1, 3 and 10 mg/kg
Procedure: NALM6-luc cells: The NALM6 human acute lymphoblastic leukemia (ALL) cell line was developed from the peripheral blood of a patient with relapsed ALL. The cells were then tagged with firefly luciferase. These suspension cells grow in RPMI supplemented with 10% heat inactivated fetal bovine serum.
Mice: 6 week old NSG (NOD.Cg-PrkdcscidIl2rgtm1Wjl/SzJ) mice were received from the Jackson Laboratory (stock number 005557).
(§2) Tumor implantation: NALM6-luc cells were grown and expanded in vitro in RPMI supplemented with 10% heat inactivated fetal bovine serum. The cells were then transferred to a 15 ml conical tube and washed twice with cold sterile PBS. NALM6-luc cells were then counted and resuspended at a concentration of 10×10^6 cells per milliliter of PBS. The cells were placed on ice and immediately (within one hour) implanted in the mice. NALM6-luc cells were injected intravenously via the tail vein in a 100 μl volume, for a total of 1×10^6 cells per mouse.
as §1

[4] = tested on: huCAR19 CAR T cells; assay: In vivo proliferation of humanized CD19 CAR T cells with and without RAD001 dosing; parameters: species or system NSG mice
Procedure: as §2
CAR T cell dosing: Mice were administered 5×10^6 CAR T cells 7 days after tumor implantation. Cells were partially thawed in a 37 degree Celsius water bath and then completely thawed by the addition of 1 ml of cold sterile PBS to the tube containing the cells. The thawed cells were transferred to a 15 ml falcon tube and adjusted to a final volume of 10 mls with PBS. The cells were washed twice at 1000 rpm for 10 minutes each time and then counted on a hemocytometer. T cells were then resuspended at a concentration of 50×10^6 CAR T cells per ml of cold PBS and kept on ice until the mice were dosed. The mice were injected intravenously via the tail vein with 100 μl of the CAR T cells for a dose of 5×10^6 CAR T cells per mouse. Eight mice per group were treated either with 100 μl of PBS alone (PBS), or humanized CD19 CAR T cells.
as §1
Based on these doses, huCAR19 CAR T cells were dosed with and without RAD001 to determine the proliferative ability of these cells. The highest dose used was 3 mg/kg based on the levels of RAD001 in the blood 24 hours after dosing. As the concentration of RAD001 was above 10 nM 24 hours after the final dose of RAD001, several lower doses of RAD001 were used in the in vivo study with CAR T cells. The CAR T cells were dosed IV one day prior to the start of the daily oral RAD001 dosing. Mice were monitored via FACS for T cell expansion.

- concentration at 24 h ([2]; NSG, lowest dose tested (0.3 mg/kg), oral, read-out: RAD001 concentration in the blood 24 hours after dosing): > 10 nM
- stability in the blood of tumor bearing mice ([2]; daily oral dosing, NSG mice): fairly stable
- RAD001 concentration in the blood 24 hours after dosing ([2]; day 14, lowest dose tested (0.3 mg/kg), oral): above 10 nm
- concentration at 24 h ([2]; 0.3 mg/kg, NSG mice, daily oral dosing, read-out: concentration of RAD001 24 hours after the final dose): > 10 nM
Compound: CO[C@H]1C[C@@H]2CC[C@@H](C)[C@@](O)(O2)C(=O)C(=O)N2CCCC[C@H]2C(=O)O[C@H]([C@H](C)C[C@@H]2CC[C@@H](OCCO)[C@H](OC)C2)CC(=O)[C@H](C)/C=C(\C)[C@@H](O)[C@@H](OC)C(=O)[C@H](C)C[C@H](C)/C=C/C=C/C=C/1C [RAD001, (1R,9S,12S,15R,16E,18R,19R,21R,23S,24E,26E,28E,30S,32S,35R)-1,18-dihydroxy-12-{(1R)-2-[(1S,3R,4R)-4-(2-hydroxyethoxy)-3-methoxycyclohexyl]-1-methylethyl}-19,30-dimethoxy-15,17,21,23,29,35-hexamethyl-11,36-dioxa-4-aza-tricyclo[30.3.1.04,9]hexatriaconta-16,24,26,28-tetraene-2,3,10,14,20-pentaone]
- proliferation of huCART19 cells versus no RAD001 ([1]; 0.0032 nM RAD001): higher than observed without the addition of RAD001
- proliferation of huCART19 cells versus no RAD001 ([1]; 0.016 nM RAD001): higher than observed without the addition of RAD001
- RAD001 concentration at which huCART19 cells expanded ([1]; 4 day co-culture with Nalm-6, ratio 1:1): less than 0.016 nM
- proliferation of CAR-expressing, transduced T cells ([1]; low doses of RAD001, cell culture system, FIG. 12): enhanced
- growth of NALM6-luc tumors [3]: did not have an impact on the growth of NALM6-luc tumors
- CAR T cell proliferation in vivo versus normal level of huCAR19 proliferation ([4]; 0.003 mg/kg RAD001 daily): enhancement in CAR T cell proliferation
- enhanced proliferation, CD4+ CAR T cells compared with CD8+ CAR T cells ([4]; lowest doses of RAD001): more evident and prolonged
- proliferation of CD8+ CAR T cells in vivo ([4]; lowest doses of RAD001): enhanced proliferation can be seen at early time points
- proliferation of the CAR T cells in vivo ([4]; lowest doses of RAD001, daily oral): enhanced proliferation
